In this assay the target is T1, human CTPS1 (Homo sapiens, UniProt P17812).
T1 sequence (P17812 1-591): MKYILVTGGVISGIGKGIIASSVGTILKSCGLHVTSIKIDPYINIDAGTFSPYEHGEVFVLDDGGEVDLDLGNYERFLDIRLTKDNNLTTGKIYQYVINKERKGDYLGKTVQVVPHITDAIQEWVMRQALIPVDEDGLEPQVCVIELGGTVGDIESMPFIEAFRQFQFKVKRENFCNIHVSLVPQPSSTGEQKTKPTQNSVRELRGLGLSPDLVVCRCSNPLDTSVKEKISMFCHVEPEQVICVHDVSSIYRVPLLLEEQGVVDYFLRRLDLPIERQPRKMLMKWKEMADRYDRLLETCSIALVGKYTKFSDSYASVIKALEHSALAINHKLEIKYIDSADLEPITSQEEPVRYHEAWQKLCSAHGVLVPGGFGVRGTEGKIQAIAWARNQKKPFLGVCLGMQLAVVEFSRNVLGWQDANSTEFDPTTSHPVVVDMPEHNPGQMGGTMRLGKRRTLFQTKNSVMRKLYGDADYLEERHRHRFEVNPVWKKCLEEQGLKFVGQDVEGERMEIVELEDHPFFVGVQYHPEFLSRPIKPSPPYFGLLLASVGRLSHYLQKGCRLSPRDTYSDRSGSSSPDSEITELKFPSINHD
Nature of the assay: ADP-Glo assay, human CTPS1 enzyme inhibition. To be noted: wild-type human CTPS1, 25 nM enzyme; ADP-Glo; read-out: ADP-Glo_WT_hCTPS1—25 nM_IC50 (IC50). The assay is classed as biochemical. In a few lines: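 Full-length tagged human CTPS1 (25 nM) pre-incubated 10 min at 25° C with compound, then 10 min with ATP (120 μM) and UTP (160 μM); reaction started with L-glutamine (100 μM) and GTP (60 μM), 1% DMSO, in HEPES pH 7.4, 10 mM Mg2+, 5 mM KCl, 2 mM DTT. Run within linear phase at 25° C; ADP measured by ADP-Glo luminescence.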

Structures can show the parent of a compound that is named as a salt.

These results are taken from patent US20250270200A1, “CTPS1 INHIBITORS AND USES THEREOF” (Nimbus Clotho, Inc., priority 2022, published 2025).

A word on the IC50: it is the point on the concentration scale where inhibition reaches its midpoint.

As for `CCOc1cncc(-c2cnc(C(=O)N[C@H](c3cc(NS(=O)(=O)C4CC4)ccn3)[C@H](C)CO)s2)n1` [I-229, N-((1S,2S)-1-(4-(cyclopropanesulfonamido)pyridin-2-yl)-3-hydroxy-2-methylpropyl)-5-(6-ethoxypyrazin-2-yl)thiazole-2-carboxamide], the IC50 was ≤ 0.005 µM.
For `C[C@H](CO)[C@@H](NC(=O)c1ncc(-c2cnn3ccc(Cl)cc23)s1)c1cc(NS(=O)(=O)C2CC2)ccn1` [I-230, 5-(5-chloropyrazolo[1,5-a]pyridin-3-yl)-N-((1R,2S)-1-(4-(cyclopropanesulfonamido)pyridin-2-yl)-3-hydroxy-2-methylpropyl)thiazole-2-carboxamide], the IC50 is ≤ 0.005 µM.
Consider `C[C@@H](CO)[C@@H](NC(=O)c1ncc(-c2cnn3ccc(Cl)cc23)s1)c1cc(NS(=O)(=O)C2CC2)ccn1` [I-231, 5-(5-chloropyrazolo[1,5-a]pyridin-3-yl)-N-((1R,2R)-1-(4-(cyclopropanesulfonamido)pyridin-2-yl)-3-hydroxy-2-methylpropyl)thiazole-2-carboxamide], for which the IC50 is 0.005 to 0.025 µM.
With `C[C@@H](CO)[C@H](NC(=O)c1ncc(-c2cnn3ccc(Cl)cc23)s1)c1cc(NS(=O)(=O)C2CC2)ccn1` [I-232, 5-(5-chloropyrazolo[1,5-a]pyridin-3-yl)-N-((1S,2R)-1-(4-(cyclopropanesulfonamido)pyridin-2-yl)-3-hydroxy-2-methylpropyl)thiazole-2-carboxamide], the IC50 fell in the range of 0.005 to 0.025 µM.
Take `C[C@H](CO)[C@H](NC(=O)c1ncc(-c2cnn3ccc(Cl)cc23)s1)c1cc(NS(=O)(=O)C2CC2)ccn1` [I-233, 5-(5-chloropyrazolo[1,5-a]pyridin-3-yl)-N-((1S,2S)-1-(4-(cyclopropanesulfonamido)pyridin-2-yl)-3-hydroxy-2-methylpropyl)thiazole-2-carboxamide]: the IC50 lay within 0.005 to 0.025 µM.
With `CCOc1cncc(-c2cnc(C(=O)N[C@@H](c3cc(NS(=O)(=O)C4CC4)ccn3)[C@H](C)COC)s2)n1` [I-234, N-((1R,2S)-1-(4-(cyclopropanesulfonamido)pyridin-2-yl)-3-methoxy-2-methylpropyl)-5-(6-ethoxypyrazin-2-yl)thiazole-2-carboxamide], the IC50 is ≤ 0.005 µM.
As to `CCOc1cncc(-c2cnc(C(=O)N[C@@H](c3cc(NS(=O)(=O)C4CC4)ccn3)[C@@H](C)COC)s2)n1` [I-235, N-((1R,2R)-1-(4-(cyclopropanesulfonamido)pyridin-2-yl)-3-methoxy-2-methylpropyl)-5-(6-ethoxypyrazin-2-yl)thiazole-2-carboxamide], the IC50 was 0.005 to 0.025 µM.
Consider `CCOc1cncc(-c2cnc(C(=O)N[C@H](c3cc(NS(=O)(=O)C4CC4)ccn3)[C@@H](C)COC)s2)n1` [I-236, N-((1S,2R)-1-(4-(cyclopropanesulfonamido)pyridin-2-yl)-3-methoxy-2-methylpropyl)-5-(6-ethoxypyrazin-2-yl)thiazole-2-carboxamide], for which the IC50 was ≤ 0.005 µM.
With `CCOc1cncc(-c2cnc(C(=O)N[C@H](c3cc(NS(=O)(=O)C4CC4)ccn3)[C@H](C)COC)s2)n1` [I-237, N-((1S,2S)-1-(4-(cyclopropanesulfonamido)pyridin-2-yl)-3-methoxy-2-methylpropyl)-5-(6-ethoxypyrazin-2-yl)thiazole-2-carboxamide] the figure was ≤ 0.005 µM; with `CCOc1cncc(-c2cnc(C(=O)N[C@@H](CO[C@H]3CCOC3)c3cc(NS(=O)(=O)C4CC4)ccn3)s2)n1` [I-238, N-((R)-1-(4-(cyclopropanesulfonamido)pyridin-2-yl)-2-(((S)-tetrahydrofuran-3-yl)oxy)ethyl)-5-(6-ethoxypyrazin-2-yl)thiazole-2-carboxamide], 0.025 to 0.05 µM; with `CCOc1cncc(-c2cnc(C(=O)N[C@@H](CO[C@@H]3CCOC3)c3cc(NS(=O)(=O)C4CC4)ccn3)s2)n1` [I-239, N-((R)-1-(4-(cyclopropanesulfonamido)pyridin-2-yl)-2-(((R)-tetrahydrofuran-3-yl)oxy)ethyl)-5-(6-ethoxypyrazin-2-yl)thiazole-2-carboxamide], 0.005 to 0.025 µM.
As for `CCOc1cncc(-c2cnc(C(=O)N[C@H](CO[C@@H]3CCOC3)c3cc(NS(=O)(=O)C4CC4)ccn3)s2)n1` [I-240, N-((S)-1-(4-(cyclopropanesulfonamido)pyridin-2-yl)-2-(((R)-tetrahydrofuran-3-yl)oxy)ethyl)-5-(6-ethoxypyrazin-2-yl)thiazole-2-carboxamide], the IC50 lay within 0.005 to 0.025 µM.
Consider `CCOc1cncc(-c2cnc(C(=O)N[C@H](CO[C@H]3CCOC3)c3cc(NS(=O)(=O)C4CC4)ccn3)s2)n1` [I-241, N-((S)-1-(4-(cyclopropanesulfonamido)pyridin-2-yl)-2-(((S)-tetrahydrofuran-3-yl)oxy)ethyl)-5-(6-ethoxypyrazin-2-yl)thiazole-2-carboxamide], for which the IC50 fell in the range of 0.005 to 0.025 µM.
Take `CCOc1cncc(-c2cnc(C(=O)N[C@H](c3cccc(NS(=O)(=O)C(F)F)c3)[C@H](C)CO)s2)n1` [I-242, N-((1S,2S)-1-(3-((difluoromethyl)sulfonamido)phenyl)-3-hydroxy-2-methylpropyl)-5-(6-ethoxypyrazin-2-yl)thiazole-2-carboxamide]: the IC50 was ≤ 0.005 µM.
With `CCOc1cncc(-c2cnc(C(=O)N[C@H](c3cccc(NS(=O)(=O)C(F)F)c3)[C@@H](C)CO)s2)n1` [I-243, N-((1S,2R)-1-(3-((difluoromethyl)sulfonamido)phenyl)-3-hydroxy-2-methylpropyl)-5-(6-ethoxypyrazin-2-yl)thiazole-2-carboxamide], the IC50 was 0.005 to 0.025 µM.
For `CCOc1cncc(-c2cnc(C(=O)N[C@@H](c3cccc(NS(=O)(=O)C(F)F)c3)[C@@H](C)CO)s2)n1` [I-244, N-((1R,2R)-1-(3-((difluoromethyl)sulfonamido)phenyl)-3-hydroxy-2-methylpropyl)-5-(6-ethoxypyrazin-2-yl)thiazole-2-carboxamide], the IC50 is ≤ 0.005 µM.
Turning to `CCOc1cncc(-c2cnc(C(=O)N[C@@H](c3cccc(NS(=O)(=O)C(F)F)c3)[C@H](C)CO)s2)n1` [I-245, N-((1R,2S)-1-(3-((difluoromethyl)sulfonamido)phenyl)-3-hydroxy-2-methylpropyl)-5-(6-ethoxypyrazin-2-yl)thiazole-2-carboxamide], the IC50 is ≤ 0.005 µM.
In the case of `CCOc1cncc(-c2cnc(C(=O)N[C@@H](CN3CCOCC3)c3cc(NS(=O)(=O)C4CC4)ncn3)s2)n1` [I-246, (S)-N-(1-(6-(cyclopropanesulfonamido)pyrimidin-4-yl)-2-morpholinoethyl)-5-(6-ethoxypyrazin-2-yl)thiazole-2-carboxamide], the IC50 is 0.005 to 0.025 µM.
For the molecule `CCOc1cncc(-c2cnc(C(=O)N[C@@H](CN3CCN(C4CC4)CC3)c3cc(NS(=O)(=O)C4CC4)ncn3)s2)n1` [I-248, (S)-N-(1-(6-(cyclopropanesulfonamido)pyrimidin-4-yl)-2-(4-cyclopropylpiperazin-1-yl)ethyl)-5-(6-ethoxypyrazin-2-yl)thiazole-2-carboxamide], the half-inhibitory concentration (IC50) was 0.025 to 0.05 µM.
In the case of `CCOc1cncc(-c2cnc(C(=O)N[C@H](CN3CCN(C4CC4)CC3)c3cc(NS(=O)(=O)C4CC4)ncn3)s2)n1` [I-249, (R)-N-(1-(6-(cyclopropanesulfonamido)pyrimidin-4-yl)-2-(4-cyclopropylpiperazin-1-yl)ethyl)-5-(6-ethoxypyrazin-2-yl)thiazole-2-carboxamide], the IC50 was 0.025 to 0.05 µM.
Take `CCOc1cncc(-c2cnc(C(=O)N[C@@H](CN3CCCC3)c3cc(NS(=O)(=O)C4CC4)ncn3)s2)n1` [I-250, (S)-N-(1-(6-(cyclopropanesulfonamido)pyrimidin-4-yl)-2-(pyrrolidin-1-yl)ethyl)-5-(6-ethoxypyrazin-2-yl)thiazole-2-carboxamide]: the IC50 was 0.025 to 0.05 µM.
Next, `CCOc1cncc(-c2cnc(C(=O)N[C@H](CN3CCCC3)c3cc(NS(=O)(=O)C4CC4)ncn3)s2)n1` [I-251, (R)-N-(1-(6-(cyclopropanesulfonamido)pyrimidin-4-yl)-2-(pyrrolidin-1-yl)ethyl)-5-(6-ethoxypyrazin-2-yl)thiazole-2-carboxamide]: 0.025 to 0.05 µM; `CCOc1cncc(-c2cnc(C(=O)N[C@@H](CN3C[C@H]4C[C@@H]3CO4)c3cncc(NS(=O)(=O)C4CC4)n3)s2)n1` [I-252, N-((S)-2-((1R,4R)-2-oxa-5-azabicyclo[2.2.1]heptan-5-yl)-1-(6-(cyclopropanesulfonamido)pyrazin-2-yl)ethyl)-5-(6-ethoxypyrazin-2-yl)thiazole-2-carboxamide, formic acid salt]: 0.025 to 0.05 µM; `CCOc1cncc(-c2cnc(C(=O)N[C@H](CN3C[C@H]4C[C@@H]3CO4)c3cncc(NS(=O)(=O)C4CC4)n3)s2)n1` [I-253, N-((R)-2-((1R,4R)-2-oxa-5-azabicyclo[2.2.1]heptan-5-yl)-1-(6-(cyclopropanesulfonamido)pyrazin-2-yl)ethyl)-5-(6-ethoxypyrazin-2-yl)thiazole-2-carboxamide, formic acid salt]: 0.05 to 0.1 µM.
